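Cells were grown in 96-well plates and exposed to each compound for 48 hours at five concentrations; endpoints were interpolated linearly between bracketing concentrations, or set to the highest concentration if not reached. Here, GI50 denotes the concentration required for 50% inhibition of growth.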 The source made the active and inactive calls. Rule as the data show it: active = GI50 up to about 1.1 µM and inactive = higher.
Key:
Test in all cases: DTP human tumour cell line panel, 48 h
[1] = system: 786-0
[2] = system: A498
[3] = system: A549
[4] = system: ACHN
[5] = system: BT-549
[6] = system: CAKI-1
[7] = system: CCRF-CEM
[8] = system: COLO 205
[9] = system: DU-145
[10] = system: EKVX
[11] = system: HCC 2998
[12] = system: HCT-116
[13] = system: HCT-15
[14] = system: HL-60
[15] = system: HOP-62
[16] = system: HOP-92
[17] = system: HT-29
[18] = system: Hs-578T
[19] = system: IGROV-1
[20] = system: K562
[21] = system: KM12
[22] = system: LOX IMVI
[23] = system: M14
[24] = system: MCF7
[25] = system: MDA-MB-231
[26] = system: MDA-MB-435
[27] = system: MDA-N
[28] = system: MOLT-4
[29] = system: Malme-3M
[30] = system: NCI-H226
[31] = system: NCI-H23
[32] = system: NCI-H460
[33] = system: NCI-H522
[34] = system: NCI/ADR-RES
[35] = system: OVCAR-3
[36] = system: OVCAR-4
[37] = system: OVCAR-5
[38] = system: OVCAR-8
[39] = system: PC-3
[40] = system: SF-268
[41] = system: SF-295
[42] = system: SF-539
[43] = system: SK-MEL-28
[44] = system: SK-MEL-2
[45] = system: SK-MEL-5
[46] = system: SN12C
[47] = system: SNB-19
[48] = system: SNB-75
[49] = system: SR
[50] = system: SW-620
[51] = system: T47D
[52] = system: TK-10
[53] = system: U-251
[54] = system: UACC-257
[55] = system: UACC-62
[56] = system: UO-31
[57] = system: RXF 393
[58] = system: SK-OV-3
[59] = system: RPMI-8226

Measured: GI50

COc1ccc(P2(=S)OCCOP(=S)(c3ccc(OC)cc3)S2)cc1 (configuration not stated)
2.29 µM: [13]
active: [56] 0.638 µM
inactive: [1] 4.79 µM | [2] 2.45 µM | [3] 3.01 µM | [4] 5.98 µM | [5] 13.9 µM | [6] 2.31 µM | [7] 2.97 µM | [8] 3.56 µM | [9] 3.74 µM | [10] > 21.8 µM | [11] 2.87 µM | [12] 3.28 µM | [14] 2.64 µM | [15] 3.58 µM | [16] 10.4 µM | [17] 2.64 µM | [18] 5.48 µM | [19] 4.03 µM | [20] 2.51 µM | [21] 2.87 µM | [22] 2.84 µM | [23] 5.14 µM | [24] 3.62 µM | [25] 3.13 µM | [26] 1.39 µM | [27] 2.29 µM | [28] 2.87 µM | [29] 13.7 µM | [30] 5.16 µM | [31] 4.7 µM | [32] 2.65 µM | [33] 2.2 µM | [34] 4.41 µM | [35] 2.52 µM | [36] 12.3 µM | [37] > 100 µM | [38] 3.47 µM | [39] 2.26 µM | [40] 3.99 µM | [41] 2.53 µM | [42] 2.76 µM | [43] 18.4 µM | [44] 3.51 µM | [45] 3.02 µM | [46] 2.56 µM | [47] 3.71 µM | [48] > 52.7 µM | [49] 3.6 µM | [50] 4.54 µM | [51] 41.8 µM | [52] 16.3 µM | [53] 4.03 µM | [54] 11.2 µM | [55] 4.16 µM

Cc1ccc(SC2C(=O)C3CC(OCc4ccccc4)C2(C)C3(C)C)cc1 (configuration not stated)
inactive: [1] > 100 µM | [2] > 100 µM | [3] > 100 µM | [4] > 100 µM | [5] > 100 µM | [7] 73.8 µM | [9] > 100 µM | [10] 64.7 µM | [11] > 100 µM | [12] 9.66 µM | [14] 37.9 µM | [15] > 100 µM | [16] 29.6 µM | [17] 41.9 µM | [18] > 100 µM | [19] > 100 µM | [20] 32.9 µM | [21] > 100 µM | [23] > 100 µM | [24] > 100 µM | [25] > 100 µM | [26] > 100 µM | [27] > 100 µM | [28] 13 µM | [29] > 100 µM | [30] > 100 µM | [31] 46.8 µM | [32] > 100 µM | [34] > 100 µM | [35] > 100 µM | [37] > 100 µM | [38] > 100 µM | [39] 12.4 µM | [57] 52 µM | [40] > 100 µM | [41] > 100 µM | [42] > 100 µM | [43] > 100 µM | [44] 38.7 µM | [45] > 100 µM | [58] > 100 µM | [46] > 100 µM | [47] > 100 µM | [49] 51.3 µM | [50] > 100 µM | [51] 13.1 µM | [52] > 100 µM | [53] 39.3 µM | [55] > 100 µM | [56] > 100 µM
29.1 µM: [13]

COc1ccc(C(OC(=O)[C@H](O[Si](C)(C)C(C)(C)C)[C@@H](NC(=O)c2ccccc2)c2ccccc2)c2ccc(OC)cc2)cc1
inactive: [1] > 100 µM | [2] > 100 µM | [3] > 100 µM | [4] > 100 µM | [5] > 100 µM | [6] > 100 µM | [7] > 100 µM | [8] > 100 µM | [9] > 100 µM | [10] > 100 µM | [11] 68.1 µM | [12] > 100 µM | [15] > 100 µM | [16] > 100 µM | [17] > 100 µM | [18] > 100 µM | [19] > 100 µM | [20] 24.8 µM | [21] > 100 µM | [22] > 100 µM | [24] 65 µM | [25] 48.3 µM | [26] > 100 µM | [27] > 100 µM | [28] 52 µM | [29] > 100 µM | [30] > 100 µM | [31] > 100 µM | [32] > 100 µM | [33] > 100 µM | [34] > 100 µM | [35] > 100 µM | [36] > 100 µM | [37] > 100 µM | [38] > 100 µM | [39] > 100 µM | [57] > 100 µM | [40] > 100 µM | [41] 3.75 µM | [42] > 100 µM | [44] > 100 µM | [45] 77.1 µM | [46] > 100 µM | [47] > 100 µM | [48] > 100 µM | [49] 36.6 µM | [50] > 100 µM | [51] > 100 µM | [52] > 100 µM | [53] > 100 µM | [54] > 100 µM | [55] > 100 µM | [56] > 100 µM
active: [59] < 0.01 µM
> 100 µM: [13]

Reference: ChEMBL document CHEMBL1201862, “PubChem BioAssay data set” (2004)
